We go through 30 compounds from patent US10988459B2 (priority 2015, dated 2021).

pKi: −log10 of the molar value. Where two headings read alike, the source gives them in different places.

This test has as its target human RIP1 kinase domain (2-375) (Homo sapiens (Human), UniProt Q13546). Nature of the test: biochemical. It is filed as biochemical. To be noted: 50 uM ATP. In a few lines:
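Ki^app comes from Morrison tight-binding fits of fractional activity versus compound concentration. Activity was read as ADP production, via tracer displacement lowering fluorescence polarization (633 nm laser). Conditions: 2 h, 50 nM insect-cell-expressed enzyme, 50 uM ATP, 30 mM MgCl2, 1 mM DTT, 0.5% DMSO, pH 7.5 Hepes.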

The mark [1] stands for this setting: Table 5, apparent Ki (Morrison tight-binding fit), 50 nM RIP1 kinase domain, 2 hours incubation, read-out: Ki.
[2] abbreviates: human RIP1 kinase domain (2-375), 2 hours incubation, Transcreener ADP assay, read-out: RIP1 Ki.
The mark [3] stands for this setting: Table 1, apparent Ki (Morrison tight-binding fit), 50 nM RIP1 kinase domain, 2 hours incubation, read-out: RIP1 Ki.
Where [4] appears, read: tight-binding apparent inhibition constant, human RIP1 kinase domain (2-375) 50 nM, 2 hours, read-out: Ki.
The mark [5] stands for this setting: human RIP1 kinase domain (2-375), Transcreener ADP assay, 2 hours incubation, read-out: RIP1 Ki.

Sequence of human RIP1 kinase domain (2-375) (Q13546 2-375): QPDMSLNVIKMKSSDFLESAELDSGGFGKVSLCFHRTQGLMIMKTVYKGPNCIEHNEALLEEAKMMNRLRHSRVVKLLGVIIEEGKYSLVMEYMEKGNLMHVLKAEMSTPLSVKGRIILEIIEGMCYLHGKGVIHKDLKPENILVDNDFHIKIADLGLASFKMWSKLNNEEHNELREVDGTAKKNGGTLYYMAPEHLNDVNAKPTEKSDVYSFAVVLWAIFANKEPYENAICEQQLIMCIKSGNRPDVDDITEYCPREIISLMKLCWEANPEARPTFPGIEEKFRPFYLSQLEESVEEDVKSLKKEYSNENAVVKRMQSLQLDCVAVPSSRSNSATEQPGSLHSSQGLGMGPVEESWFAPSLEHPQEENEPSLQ

Consider `CC[C@@]1(C)OCc2cnc(C(=O)N[C@H]3COc4ccccc4N(C)C3=O)cc21` (single isomer, unassigned) [Example 765], for which the pKi under setting [1] was 7.82.

As for `CN1C(=O)[C@@H](NC(=O)c2nnn3c2CC(c2ccccc2)C3)COc2ccccc21` (stereo partly drawn) [Example 119, N—((S)-5-methyl-4-oxo-2,3,4,5-tetrahydrobenzo[b][1,4]oxazepin-3-yl)-5-phenyl-5,6-dihydro-4H-pyrrolo[1,2-c][1,2,3]triazole-3-carboxamide], under setting [2], the pKi was 6.70. Consider `C[C@H]1CCc2noc(C(=O)N[C@H]3COc4ccccc4N(C)C3=O)c2C1` [Example 69, (S)-5-methyl-N-((S)-5-methyl-4-oxo-2,3,4,5-tetrahydrobenzo[b][1,4]oxazepin-3-yl)-4,5,6,7-tetrahydrobenzo[c]isoxazole-3-carboxamide], for which, under setting [3], the pKi is 7.07. Turning to `COc1ccccc1Cn1cnc(C(=O)N[C@H]2CCn3nccc3N(C)C2=O)n1` [Example 587, 1-[(2-methoxyphenyl)methyl]-N-(6S)-4-methyl-5-oxo-7,8-dihydro-6H-pyrazolo[1,5-a][1, 3]diazepin-6-yl-1,2,4-triazole-3-carboxamide], the pKi under setting [4] was 7.33. As to `CN1C(=O)[C@@H](NC(=O)c2n[nH]c3c2CCCC3)COc2ccccc21` [Example 32, (S)—N-(5-methyl-4-oxo-2,3,4,5-tetrahydrobenzo[b][1,4]oxazepin-3-yl)-4,5,6,7-tetrahydro-1H-indazole-3-carboxamide], the negative logarithm of the Ki (pKi) under setting [3] is 5.47. On to `COCCc1cc2n(n1)CC[C@H](NC(=O)c1ncn(Cc3ccccc3F)n1)C(=O)N2C` [Example 768], for which, under setting [1], the pKi is 7.29. As to `CN1C(=O)[C@@H](NC(=O)c2nc3n(n2)[C@@H](c2cnn(C)c2)CCC3)COc2ccccc21` (racemic) [Example 407, (R)-5-(1-methyl-1H-pyrazol-4-yl)-N—((S)-5-methyl-4-oxo-2,3,4,5-tetrahydrobenzo[b][1,4]oxazepin-3-yl)-5,6,7,8-tetrahydro-[1,2,4]triazolo[1,5-a]pyridine-2-carboxamide], the negative-log Ki (pKi) under setting [4] is 7.26. Turning to `CN1C(=O)[C@@H](NC(=O)c2ncn(CC3CC3(F)F)n2)CCn2nc(C3CC3)cc21` (stereo in doubt) [Example 291, (S)—N-(2-cyclopropyl-4-methyl-5-oxo-5,6,7,8-tetrahydro-4H-pyrazolo[1,5-a][1,3]diazepin-6-yl)-1-((2,2-difluorocyclopropyl)methyl)-1H-1,2,4-triazole-3-carboxamide], under setting [5], the pKi is 6.09. As for `CC(C)C1CCc2cnc(C(=O)N[C@H]3COc4ccccc4N(C)C3=O)n2C1` (stereo partly drawn) [Example 173, 6-isopropyl-N—((S)-5-methyl-4-oxo-2,3,4,5-tetrahydrobenzo[b][1,4]oxazepin-3-yl)-5,6,7,8-tetrahydroimidazo[1,5-a]pyridine-3-carboxamide], the negative logarithm of the Ki (pKi) under setting [2] is 7.41. For the compound `Cc1cc2n(n1)CC[C@H](NC(=O)c1ncn(Cc3ccc(F)cc3)n1)C(=O)N2C` [Example 222, (S)—N-(2,4-dimethyl-5-oxo-5,6,7,8-tetrahydro-4H-pyrazolo[1,5-a][1,3]diazepin-6-yl)-1-(4-fluorobenzyl)-1H-1,2,4-triazole-3-carboxamide], under setting [2], the pKi was 7.59.

As for `CCOCCc1cc2n(n1)CC[C@H](NC(=O)c1ncn(Cc3ccccc3F)n1)C(=O)N2C` [Example 763], under setting [1], the pKi was 7.14.

As to `CN1C(=O)[C@@H](NC(=O)c2nc3n(n2)CCC32CCOCC2)COc2ccccc21` [Example 634, N-[(3S)-5-methyl-4-oxo-2,3-dihydro-1,5-benzoxazepin-3-yl]spiro[5,6-dihydropyrrolo[1,2-b][1,2,4]triazole-7,4′-tetrahydropyran]-2-carboxamide], the pKi under setting [4] was 6.62. For the compound `CN1C(=O)C(NC(=O)c2ncn(Cc3ccccc3)n2)CCn2nc(C3CC3(F)F)cc21` (stereo not drawn) [Example 134, 1-benzyl-N-(2-(2,2-difluorocyclopropyl)-4-methyl-5-oxo-5,6,7,8-tetrahydr-4H-pyrazolo[1,5-a][1,3]diazepin-6-yl)-1H-1,2,4-triazole-3-carboxamide], the negative-log Ki (pKi) under setting [2] is 7.13. Still for that read-out and setting: the same measure for `CN1C(=O)[C@@H](NC(=O)c2nnc3cnc(C(F)(F)F)cn23)COc2ccccc21` [Example 200, (S)—N-(5-methyl-4-oxo-2,3,4,5-tetrahydrobenzo[b][1,4]oxazepin-3-yl)-6-(trifluoromethyl)-[1,2,4]triazolo[4,3-a]pyrazine-3-carboxamide]: 5.77. For `Cc1nc(C(=O)N[C@H]2CCn3nccc3N(C)C2=O)nn1Cc1ccccc1` [Example 462, (S)-1-Benzyl-5-methyl-N-(4-methyl-5-oxo-5,6,7,8-tetrahydro-4H-pyrazolo[1,5-a][1,3]diazepin-6-yl)-1H-1,2,4-triazole-3-carboxamide], under setting [4], the pKi is 7.48. Regarding `CN1C(=O)[C@@H](NC(=O)c2nc3n(n2)[C@H](c2ccccc2)CC3)CCn2nccc21` (single isomer, unassigned) [Example 126], the pKi under setting [2] was 7.62. With `CCc1cc2n(n1)CCC(NC(=O)c1ncn(Cc3ccccc3F)n1)C(=O)N2C` (stereo not drawn) [Example 463, N-(2-Ethyl-4-methyl-5-oxo-5,6,7,8-tetrahydro-4H-pyrazolo[1,5-a][1,3]diazepin-6-yl)-1-(2-fluorobenzyl)-1H-1,2,4-triazole-3-carboxamide], the pKi under setting [4] was 7.35. As to `CN1C(=O)[C@H](NC(=O)c2nnc(Cc3ccccc3)[nH]2)CCn2nc(C3CC3(F)F)cc21` (stereo partly drawn) [Example 286, 5-benzyl-N-((6R)-2-(2,2-difluorocyclopropyl)-4-methyl-5-oxo-5,6,7,8-tetrahydro-4H-pyrazolo[1,5-a][1,3]diazepin-6-yl)-4H-1,2,4-triazole-3-carboxamide], under setting [5], the pKi is 7.03.

As for `CN1C(=O)[C@@H](NC(=O)c2nc3n(n2)C(c2ccccc2)CCC3)COc2ccccc21` (stereo partly drawn) [Example 376, N—((S)-5-methyl-4-oxo-2,3,4,5-tetrahydrobenzo[b][1,4]oxazepin-3-yl)-5-phenyl-5,6,7,8-tetrahydro-[1,2,4]triazolo[1,5-a]pyridine-2-carboxamide], the pKi under setting [4] is 7.37. In the case of `CN1C(=O)[C@@H](NC(=O)c2ncn(Cc3ccccc3)n2)CCn2nc(C3CC3(F)F)cc21` (stereo partly drawn) [Example 283, 1-benzyl-N-((6S)-2-(2,2-difluorocyclopropyl)-4-methyl-5-oxo-5,6,7,8-tetrahydro-4H-pyrazolo[1,5-a][1,3]diazepin-6-yl)-1H-1,2,4-triazole-3-carboxamide], the pKi under setting [5] is 7.14. In the case of `Cc1cc2n(n1)CC[C@H](NC(=O)c1ncn(CC3CCCC3)n1)C(=O)N2C` [Example 162, (S)-1-(cyclopentylmethyl)-N-(2,4-dimethyl-5-oxo-5,6,7,8-tetrahydro-4H-pyrazolo[1,5-a][1,3]diazepin-6-yl)-1H-1,2,4-triazole-3-carboxamide], the pKi under setting [2] is 7.44. Take `CN1C(=O)[C@@H](NC(=O)c2cc3c(Br)cccc3cn2)CCn2nccc21` (racemic) [Example 700, 5-bromo-N-[rac-(6S)-4-methyl-5-oxo-7,8-dihydro-6H-pyrazolo[1,5-a][1,3]diazepin-6-yl]isoquinoline-3-carboxamide]: the pKi under setting [1] was 6.35. For `CCc1cc2n(n1)CCC(NC(=O)c1ncn(Cc3ccccc3)n1)C(=O)N2C` (stereo not drawn) [Example 460, 1-Benzyl-N-(2-ethyl-4-methyl-5-oxo-5,6,7,8-tetrahydro-4H-pyrazolo[1,5-a][1,3]diazepin-6-yl)-1H-1,2,4-triazole-3-carboxamide], the pKi under setting [4] was 7.39. For the compound `CN1C(=O)[C@@H](NC(=O)c2ncn(Cc3ccccc3C#N)n2)CCn2nc(C3CC3)cc21` [Example 593], the negative-log Ki (pKi) under setting [4] is 7.10.

Take `CN1C(=O)C(NC(=O)c2cn(Cc3ccccc3)nn2)CCn2nc(C3CCOCC3)cc21` (stereo not drawn) [Example 237, 1-benzyl-N-(4-methyl-5-oxo-2-(tetrahydro-2H-pyran-4-yl)-5,6,7,8-tetrahydro-4H-pyrazolo[1,5-a][1,3]diazepin-6-yl)-1H-1,2,3-triazole-4-carboxamide]: the pKi under setting [5] was 5.85. With `CC[C@H]1C[C@H](Cn2cnc(C(=O)N[C@H]3CCn4nc(C)cc4N(C)C3=O)n2)C1` [Example 501, N—((S)-2,4-dimethyl-5-oxo-5,6,7,8-tetrahydro-4H-pyrazolo[1,5-a][1,3]diazepin-6-yl)-1-(((1S,3S)-3-ethylcyclobutyl)methyl)-1H-1,2,4-triazole-3-carboxamide], the pKi under setting [4] is 7.17. As for `Cc1cc2n(n1)CCC(NC(=O)c1ncn3ccc(C(F)(F)F)cc13)C(=O)N2C` (stereo not drawn) [Example 76, N-(2,4-dimethyl-5-oxo-5,6,7,8-tetrahydro-4H-pyrazolo[1,5-a][1,3]diazepin-6-yl)-7-(trifluoromethyl)imidazo[1,5-a]pyridine-1-carboxamide], the pKi under setting [3] was 6.27. `Cc1cc2n(n1)CC[C@H](NC(=O)c1nnc(Cc3cccc(F)c3F)[nH]1)C(=O)N2C` [Example 513, 5-[(2,3-difluorophenyl)methyl]-N-(6S)-2,4-dimethyl-5-oxo-7,8-dihydro-6H-pyrazolo[1,5-a][1,3]diazepin-6-yl-4H-1,2,4-triazole-3-carboxamide]: under setting [4], the pKi is 7.54. As to `CN1C(=O)[C@@H](NC(=O)c2ncn(Cc3ccccc3)n2)CCn2nc(C3CC3)cc21` [Example 171, (S)-1-benzyl-N-(2-cyclopropyl-4-methyl-5-oxo-5,6,7,8-tetrahydro-4H-pyrazolo[1,5-a][1,3]diazepin-6-yl)-1H-1,2,4-triazole-3-carboxamide], the pKi under setting [2] is 7.79. For the compound `CN1C(=O)[C@@H](NC(=O)c2ncn(Cc3ccc(F)cc3)n2)CCn2nc(C3CC3)cc21` [Example 225, (S)—N-(2-cyclopropyl-4-methyl-5-oxo-5,6,7,8-tetrahydro-4H-pyrazolo[1,5-a][1,3]diazepin-6-yl)-1-(4-fluorobenzyl)-1H-1,2,4-triazole-3-carboxamide], the pKi under setting [2] was 7.68.

Usually pKi stands for the Ki on a negative log10 scale, so that one unit is a factor of ten.
